How the values were obtained:
[1] = molecular target: T1, Bile acid receptor (Homo sapiens, UniProt Q96RI1); experiment: (§1) Effective concentration against farnesoid X receptor (FXR)
T1 sequence (Q96RI1 whole entry): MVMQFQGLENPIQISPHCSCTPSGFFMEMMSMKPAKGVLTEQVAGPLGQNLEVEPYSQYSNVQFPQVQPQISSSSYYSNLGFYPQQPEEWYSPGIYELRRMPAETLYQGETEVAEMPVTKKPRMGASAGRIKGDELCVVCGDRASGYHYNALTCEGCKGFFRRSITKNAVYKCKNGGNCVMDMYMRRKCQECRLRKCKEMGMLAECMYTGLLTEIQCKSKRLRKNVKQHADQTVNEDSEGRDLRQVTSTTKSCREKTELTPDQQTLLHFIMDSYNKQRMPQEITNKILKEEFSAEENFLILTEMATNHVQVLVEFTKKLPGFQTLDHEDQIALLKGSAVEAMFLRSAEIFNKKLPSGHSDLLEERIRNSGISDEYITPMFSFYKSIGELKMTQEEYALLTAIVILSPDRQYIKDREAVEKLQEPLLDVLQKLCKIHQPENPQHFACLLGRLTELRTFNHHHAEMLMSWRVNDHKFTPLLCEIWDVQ

[2] = molecular target: T1, Bile acid receptor; experiment: as §1; remark: listed apart in the source

Compound | EC50 [1] [µM] | EC50 [2] [µM]
COC(=O)/C=C/c1cccc(N(Cc2ccc(-c3cccc(OC)c3)cc2)C(=O)C2CCCCC2)c1 | 0.0776 | 
COC/C=C/c1ccc(CN(C(=O)C2CCCCC2)c2cccc(/C=C/C(=O)OC)c2)cc1 |  | 0.233
COC(=O)/C=C/c1cccc(N(Cc2ccc(-c3c(OC)cccc3OC)cc2)C(=O)NC(C)C)c1 | 0.562 | 
COC(=O)/C=C/c1cccc(N(Cc2ccc(/C=C/c3ccccc3F)cc2)C(=O)C2CCCCC2)c1 |  | 0.064
COC(=O)/C=C/c1cccc(N(Cc2ccc(/C=C/c3c(Cl)cccc3Cl)cc2)C(=O)C2CCCCC2)c1 | 0.151 | 0.15
COC(=O)/C=C/c1cccc(N(Cc2ccc(-c3ccc(C)s3)cc2)C(=O)C2CCCCC2)c1 |  | 0.206
COC(=O)/C=C/c1cccc(N(Cc2ccc(/C=C/C(=O)OC(C)(C)C)cc2OCc2ccccc2)C(=O)C2CCCCC2)c1 |  | > 1
CCOC/C=C/c1cccc(N(Cc2ccc(/C=C/C(=O)OC(C)(C)C)cc2)C(=O)C2CCCCC2)c1 |  | 0.22
COC(=O)/C=C/c1cccc(N(Cc2ccc(/C=C/C(=O)OCc3ccccc3)cc2)C(=O)C2CCCCC2)c1 |  | > 1
COC(=O)/C=C/c1cccc(N(Cc2ccc(/C=C/c3ccc(F)cc3)cc2)C(=O)C2CCCCC2)c1 | 0.186 | 0.185
COC(=O)/C=C/c1cccc(N(Cc2ccc(/C=C/C(=O)OC(C)(C)C)cc2OC)C(=O)C2CCCCC2)c1 |  | > 1
COC(=O)/C=C/c1cccc(N(Cc2ccc(-c3cc(Cl)ccc3OC)cc2)C(=O)C2CCCCC2)c1 | 0.234 | 
COC(=O)/C=C/c1cccc(N(Cc2ccc(-c3ccc4c(c3)OCO4)cc2)C(=O)C2CCCCC2)c1 |  | 0.038
COC(=O)/C=C/c1cccc(N(Cc2ccc(/C=C/C(=O)N(C)C)cc2)C(=O)C2CCCCC2)c1 |  | > 1
COC(=O)/C=C/c1cccc(N(Cc2ccc(/C=C/c3ccc(OC)cc3)cc2)C(=O)C2CCCCC2)c1 |  | 0.208
COC(=O)/C=C/c1cccc(N(Cc2cc(OC)cc(OC)c2)C(=O)C2CCCCC2)c1 | 0.603 | 
CCOC(=O)COc1cc(/C=C/C(=O)OC(C)(C)C)ccc1CN(C(=O)C1CCCCC1)c1cccc(/C=C/C(=O)OC)c1 |  | > 1
COC(=O)/C=C/c1cccc(N(Cc2ccc(/C=C/C(=O)OC(C)(C)C)cc2OC(C)=O)C(=O)C2CCCCC2)c1 |  | > 1
COC/C=C/c1cccc(N(Cc2ccc(/C=C/C(=O)OC(C)(C)C)cc2)C(=O)C2CCCCC2)c1 |  | 0.243
CC(C)(C)OC(=O)/C=C/c1cccc(N(Cc2ccc(CCC(=O)OC(C)(C)C)cc2)C(=O)C2CCCCC2)c1 |  | > 1
COC(=O)/C=C/c1cccc(N(Cc2ccc(/C=C/C(=O)OC(C)(C)C)cc2O)C(=O)C2CCCCC2)c1 | 1 | > 1
COC(=O)/C=C/c1cccc(N(Cc2ccc(/C=C/c3scnc3C)cc2)C(=O)C(C)C)c1 |  | 0.228
COC(=O)/C=C/c1cccc(N(Cc2ccc(/C=C/c3cc(C(F)(F)F)cc(C(F)(F)F)c3)cc2)C(=O)C2CCCCC2)c1 |  | 1.47
CC(C)(C)OC(=O)/C=C/c1ccc(CN(C(=O)C2CCCCC2)c2cccc(/C=C/C(N)=O)c2)cc1 |  | > 1
COC(=O)/C=C/c1cccc(N(Cc2ccc(/C=C/C(=O)O)cc2)C(=O)C2CCCCC2)c1 | 1 | > 1

Compound | EC50 [1] [µM] | EC50 [2] [µM]
COC(=O)/C=C/c1cccc(N(Cc2ccc(-c3ccc(OC(F)(F)F)cc3)cc2)C(=O)C2CCCCC2)c1 | 0.263 | 
COC(=O)/C=C/c1cccc(N(Cc2ccc(-c3cccc(C)c3)cc2)C(=O)NC(C)C)c1 | 1.32 | 
COC(=O)/C=C/c1cccc(N(Cc2ccc(/C=C/C(=O)OC(C)(C)C)cc2OS(C)(=O)=O)C(=O)C2CCCCC2)c1 |  | > 1
COC(=O)/C=C/c1cccc(N(Cc2ccc(/C=C/c3cccc(F)c3)cc2)C(=O)NC(C)C)c1 | 0.468 | 
COC(=O)/C=C/c1cccc(N(Cc2ccc(/C=C/c3ccccn3)cc2)C(=O)C(C)C)c1 |  | 0.31
COC(=O)/C=C/c1cccc(N(Cc2ccc(/C=C/C(=O)NC(C)(C)C)cc2)C(=O)C2CCCCC2)c1 |  | > 1
COC(=O)/C=C/c1cccc(N(Cc2ccc(-c3cccc(OC)c3)cc2)C(=O)C(C)C)c1 | 0.0724 | 
COC(=O)/C=C/c1cccc(N(Cc2ccc(-c3cccc(OC(F)(F)F)c3)cc2)C(=O)C2CCCCC2)c1 | 0.417 | 
COC(=O)/C=C/c1cccc(N(Cc2ccc(-c3cccc(Cl)c3)cc2)C(=O)NC(C)C)c1 | 1.41 | 
COC(=O)/C=C/c1cccc(N(Cc2ccc(/C=C/c3cccc(Cl)c3)cc2)C(=O)C(C)C)c1 | 0.162 | 
COC(=O)/C=C/c1cccc(N(Cc2ccc(/C=C/c3ccccn3)cc2)C(=O)C2CCCCC2)c1 |  | 0.309
COC(=O)/C=C/c1cccc(N(Cc2ccc(/C=C/c3ccccc3)cc2)C(=O)C(C)C)c1 | 0.0646 | 
COC(=O)/C=C/c1cccc(N(Cc2ccc(-c3ccc4c(c3)OCO4)cc2)C(=O)C(C)C)c1 | 0.0191 | 
COC(=O)/C=C/c1cccc(N(Cc2ccc(/C=C/c3cccc(Cl)c3)cc2)C(=O)C2CCCCC2)c1 | 0.166 | 0.165
COC(=O)/C=C/c1cccc(N(Cc2ccc(/C=C/c3scnc3C)cc2)C(=O)C2CCCCC2)c1 |  | 0.227
COC(=O)/C=C/c1cccc(N(Cc2ccc(/C=C/C(=O)OC(C)(C)C)cc2OC(=O)c2ccccc2)C(=O)C2CCCCC2)c1 |  | > 1
COC(=O)/C=C/c1cccc(N(Cc2ccc(/C=C/c3ccccc3F)cc2)C(=O)C(C)C)c1 | 0.0708 | 
COC(=O)/C=C/c1cccc(N(Cc2ccc(-c3ccc(F)c(Cl)c3)cc2)C(=O)C(C)C)c1 | 0.129 | 
COC(=O)/C=C/c1cccc(N(Cc2ccc(-c3c(OC)cccc3OC)cc2)C(=O)C2CCCCC2)c1 |  | 0.077
COC(=O)/C=C/c1cccc(N(Cc2ccc(/C=C/c3cccc(F)c3)cc2)C(=O)C2CCCCC2)c1 |  | 0.086
CCOC(=O)/C=C/c1ccc(CN(C(=O)C2CCCCC2)c2cccc(/C=C/C(=O)OC)c2)cc1 |  | > 1
CC(C)(C)OC(=O)/C=C/c1ccc(CN(C(=O)C2CCCCC2)c2cccc(/C=C/C(=O)OC(C)(C)C)c2)cc1 | 1 | > 1
COC(=O)/C=C/c1ccc(CN(C(=O)C2CCCCC2)c2cccc(/C=C/C(=O)OC)c2)cc1 |  | > 1
COC(=O)/C=C/c1cccc(N(Cc2ccc(-c3ccc(N(C)C)cc3)cc2)C(=O)C2CCCCC2)c1 [FEXARAMINE] |  | 0.025

From ChEMBL document CHEMBL1139569, “Hologram quantitative structure-activity relationships for a series of farnesoid X receptor activators” (Bioorg Med Chem Lett, 2005)
